Measured values as given in US5380732A, “Pesticidal compounds” (priority 1986, dated 1995).

Experiments:
Assay type in all cases: in vivo
Plutella xylostella [1] = assay: discs of chinese cabbage infested with second instar Plutella larvae sprayed (Example C); details: 2 days, 25° C.
Method: (§1) The compounds of the invention were tested by dissolving them in acetone (5%) and then diluting in water/`Synperonic` (94.5%/0.5%) to give a water emulsion. ("Synperonic" is a R.T.M. of I.C.I. plc and is nonylphenol ethoxylate in aqueous solution to give 27%; available from B.D.H., Poole, Dorset, England). The solution was then used to treat the following insects.
or Discs of chinese cabbage infested with c8 second instar Plutella larvae were sprayed with the solution containing the compound. Mortality was assessed after 2 days at 25° C.

Tetranychus urticae = assay: leaf discs of infested french bean sprayed (Example C); details: 2 days, 25° C.
Method: as §1
Leaf discs of infested french bean were sprayed with the solution containing the compound. Mortality was assessed after 2 days at 25° C.

Spodoptera littoralis [2] = assay: injection into fifth instar Spodoptera littoralis larvae (Example D); details: 5% solution in DMSO/acetone (50:50), 1.0 ul injected, 2 days, 25° C.
Method: The compounds of the invention were also tested by dissolving them in DMSO/acetone (50:50) to give a 5% solution, 1.0 ul of which was injected into fifth instar Spodoptera littoralis larvae. Mortality was assessed after 2 days at 25° C.

Sitophilus granarius = assay: adults on treated wheat, mortality after 6 days, Sitophilus (Example C); details: 25° C.
Method: as §1
(§2) 20 adult Sitophilus and Tribolium were added to 10 g wheat which had been previously treated with 2 ml of the solution containing the compound. Mortality was assessed after 6 days at 25° C.

Musca domestica = assay: spray onto 20 female Musca, mortality after 2 days (Example C); details: 25° C.
Method: as §1
20 female Musca were contained in a cardboard cylinder with gauze over either end. Solution containing the compound was sprayed onto the insects so enclosed and mortality assessed after 2 days at 25° C.

Plutella xylostella [3] = assay: fourth instar Plutella larvae sprayed and added to sprayed chinese cabbage leaf (Example C); details: 2 days, 25° C.
Method: as §1
7 Fourth instar Plutella larvae were sprayea with the solution containing the compound and added to a chinese cabbage leaf which had been similarly sprayed and left to dry. Mortality was assessed after 2 days at 25° C.

Myzus persicae = assay: adult Myzus on chinese cabbage leaf disc sprayed (Example C); details: 2 days, 25° C.
Method: as §1
10 adult Myzus were placed on a leaf disc of chinese cabbage. 24 hours later the disc was sprayed with the solution containing the compound. Mortality was assessed after 2 days at 25° C.

Tribolium castaneum = assay: adults on treated wheat, mortality after 6 days, Tribolium (Example C); details: at 1000 ppm, 25° C.
Method: as §1, §2

Blatella germanica = assay: activity against Blatella germanica with piperonyl butoxide; details: at up to 10 μg per insect (+piperonyl butoxide)
[4] = test system: Diabrotica undecimpunctata; assay: 2nd instar larvae and their food sprayed on filter paper (Example C); details: at 1000 ppm; 2nd instar larvae, 2 days
Method: as §1
2nd instar larvae and their food were sprayed on filter paper with the solution containing the compound. Activity was assessed at 2 days.

Spodoptera littoralis [5] = assay: sprayed leaves infested with newly hatched Spodoptera larvae (Example C); details: at 200 ppm, +pip but, 3 days
Method: as §1
Uninfested leaves were sprayed with the test solution containing the compound (+pip but) and left to dry. These were then infested with 10 newly hatched larvae. Mortality was assessed after 3 days.

C. quinquefasciatus = assay: track-spray of acetone-water solution, C. quinquefasciatus (Example A); details: acetone-water (5:95)
Method: (§3) The compound of Example 1 was administered in acetone-water (5:95) by track-spray to a range of insect and acarine species, giving the following results.

T. castaneum = assay: track-spray of acetone-water solution, T. castaneum (Example A); details: acetone-water (5:95)
Method: as §3

A. aegypti (larvae) = assay: track-spray of acetone-water solution, A. aegypti larvae (Example A); details: acetone-water (5:95)
Method: as §3

S. granarius = assay: track-spray of acetone-water solution, S. granarius (Example A); details: acetone-water (5:95)
Method: as §3

M. domestica = assay: track-spray of acetone-water solution, M. domestica (Example A); details: acetone-water (5:95)
Method: as §3

## CC(C)CNC(=O)C=CC=CCCCCCCCOc1nc(C(F)(F)F)ccc1C(F)(F)F [Example 20]
Plutella xylostella [1]; at 200 ppm
  active (mortality): active

## CC(C=CCCCCCCCOc1cccnc1Br)=CC(=O)NCC(C)C [Example 29]
Tetranychus urticae; at 1000 ppm
  active (mortality): active
Spodoptera littoralis [2]
  active (mortality): active

## CC(C)CNC(=O)/C=C/C=C/CCCCCCCOc1cc(C(F)(F)F)cc(C(F)(F)F)n1 [Example 19, (2E,4E) N-isobutyl 12-(4',6'-bistrifluoromethyl-2'-pyridyloxy) -dodeca-2,4-dienamide]
Plutella xylostella [1]; at 200 ppm
  active (mortality): active
Sitophilus granarius
  active (mortality): active
Musca domestica; at 200 ppm
  active (mortality): active

## CC(C)CNC(=O)/C=C/C=C/CCCCCCCOc1cc(C(F)(F)F)nc(C(F)(F)F)c1 [Example 35, (2E,4E) N-Isobutyl 12-(2',6'-bistrifluoromethyl-4'-pyridyloxy)-dodeca-2,4-dienamide]
Plutella xylostella [1]; at 200 ppm
  active (mortality): active
Sitophilus granarius
  active (mortality): active
Spodoptera littoralis [2]
  active (mortality): active
Musca domestica; at 1000 ppm
  active (mortality): active

## CC(C=CCCCCCCCOc1cccc(C(F)(F)F)n1)=CC(=O)NCC(C)C [Example 8]
Plutella xylostella [3]; at 200 ppm
  active (mortality): active
Tetranychus urticae; at 200 ppm
  active (mortality): active
Spodoptera littoralis [2]
  active (mortality): active
Musca domestica; at 1000 ppm
  active (mortality): active

## CC(C)CNC(=O)C=CC=CCCCCCCCOc1ncccc1Cl [Example 12]
Myzus persicae; at 1000 ppm
  active (mortality): active

## CC(C=CCCCCCCCOc1cccnc1Cl)=CC(=O)NC(C)C(C)C (stereo not shown) [Example 27]
Tetranychus urticae; at 1000 ppm
  active (mortality): active

## CC(/C=C/CCCCCCOCc1cccc(Cl)n1)=C\C(=O)NCC(C)C [Example 36, (2E,4E) N-Isobutyl 11-(6'-chloro-2'-pyridylmethoxy) -3-methylundeca-2,4-dienamide]
Plutella xylostella [1]; at 1000 ppm
  active (mortality): active
Tetranychus urticae; at 1000 ppm
  active (mortality): active

## CC(C)CNC(=O)C=CC=CCCCCCCCOc1ccc(Cl)cn1 [Example 17]
Plutella xylostella [3]; at 200 ppm
  active (mortality): active
Tetranychus urticae; at 1000 ppm
  active (mortality): active
Tribolium castaneum
  active (mortality): active
Musca domestica; at 200 ppm
  active (mortality): active

## CC(/C=C/CCCCCCCOc1ncc(C(F)(F)F)cc1Cl)=C(/F)C(=O)NCC(C)C [Example 39, (2Z,4E)N-Isobutyl 2-fluoro-3-methyl-12-(3-chloro-5-trifluoromethyl-2-pyridyloxy) dodeca-2,4-dienamide]
Blatella germanica
  active: active

## CC(C)CNC(=O)C=CC=CCCCCCCCOc1ccc(C(F)(F)F)cn1 [Example 6]
Musca domestica; at 1000 ppm
  active (mortality): active

## CC(/C=C/CCCCCCCOc1ncc(C(F)(F)F)cc1C(F)(F)F)=C(/F)C(=O)NCC(C)C [Example 38, (2Z,4E)N-Isobutyl 2-fluoro-3-methyl-12-(3,5-bistrifluoromethyl-2-pyridyloxy)dodeca-2,4-dienamide]
Plutella xylostella [3]; at 40 ppm
  active (mortality): active
Tetranychus urticae; at 200 ppm
  active (mortality): active
[4]
  active: active
Spodoptera littoralis [5]
  active (mortality): active
Blatella germanica
  active: active
Musca domestica; at 1000 ppm
  active (mortality): active

## CC(C)CNC(=O)C=CC=CCCCCCCCOc1ncccc1C(F)(F)F [Example 7]
Plutella xylostella [3]; at 1000 ppm
  active (mortality): active
Spodoptera littoralis [2]
  active (mortality): active

## CC(C)C(C)NC(=O)C=CC=CCCCCCCCOc1cncc(Cl)c1 (stereo not shown) [Example 24]
Plutella xylostella [3]; at 1000 ppm
  active (mortality): active

## CCC(C)NC(=O)C=CC=CCCCCCCCOc1cccc(C(F)(F)F)n1 (stereo not shown) [Example 4]
Tetranychus urticae; at 1000 ppm
  active (mortality): active
Musca domestica; at 200 ppm
  active (mortality): active

## CC(C)CNC(=O)C=CC=CCCCCCCCOc1cncc(Cl)c1 [Example 25]
Tetranychus urticae; at 200 ppm
  active (mortality): active

## CC(C)CNC(=O)/C=C/C=C/CCCCCCCOc1cccc(C(F)(F)F)n1 [Example 3, (2E,4E) N-isobutyl 12-(6trifluoromethyl-2'-pyridyloxy) dodeca-2,4-dienamide]
Tetranychus urticae; at 1000 ppm
  active (mortality): active
Musca domestica; at 200 ppm
  active (mortality): active

## CC(C=CCCCCCCCOc1cc(C(F)(F)F)cc(Cl)n1)=CC(=O)NCC(C)C [Example 11]
Plutella xylostella [3]; at 1000 ppm
  active (mortality): active
Tetranychus urticae; at 1000 ppm
  active (mortality): active
Spodoptera littoralis [2]
  active (mortality): active
Musca domestica; at 1000 ppm
  active (mortality): active

## CC(C)CNC(=O)C=CC=CCCCCCCCOc1ccccn1 [Example 15]
Myzus persicae; at 200 ppm
  active (mortality): active

## CC(C=CCCCCCCCOc1cc(C(F)(F)F)cc(C(F)(F)F)n1)=CC(=O)NCC(C)C [Example 23]
Tetranychus urticae; at 1000 ppm
  active (mortality): active
Musca domestica; at 1000 ppm
  active (mortality): active

## CC1(CNC(=O)/C=C/C=C/CCCCCCCOc2cc(C(F)(F)F)cc(C(F)(F)F)n2)OCCO1 [Example 22, (2E,4E) N-(2-methyl-1,3-dioxalan-2-yl)-methyl 12-(4',6'-bistrifluoromethyl-2-pyridyloxy)-dodeca-2,4-dienamide]
Sitophilus granarius
  active (mortality): active
Musca domestica; at 200 ppm
  active (mortality): active

## (2E,4E) N-Isobutyl 12-(4'-chloro-2'-pyrimidyloxy)-dodeca-2,4-dienamide and (2E,4E) N-Isobutyl 12-(2'-chloro-4-pyrimidyloxy)-dodeca-2,4-dienamide [Example 32]
Tetranychus urticae; at 1000 ppm
  active (mortality): active

## CC(C=CCCCCCCCOc1cccc(Cl)n1)=CC(=O)NCC(C)C [Example 9]
Plutella xylostella [3]; at 200 ppm
  active (mortality): active
Tetranychus urticae; at 200 ppm
  active (mortality): active
Musca domestica; at 1000 ppm
  active (mortality): active

## CC(C)CNC(=O)/C=C/C=C/CCCCCCCOc1ccncc1 [Example 31, (2E,4E) N-Isobutyl 12-(4'-pyridyloxy)-dodeca-2,4-dienamide]
Sitophilus granarius
  active (mortality): active
Myzus persicae; at 1000 ppm
  active (mortality): active

## CCC(C)NC(=O)C=C(C)C=CCCCCCCCOc1ncccc1Cl (stereo not shown) [Example 13]
Myzus persicae; at 200 ppm
  active (mortality): active

## CCC(C)NC(=O)C=CC=CCCCCCCCOc1ccccn1 (stereo not shown) [Example 16]
Myzus persicae; at 200 ppm
  active (mortality): active
Musca domestica; at 1000 ppm
  active (mortality): active

## CC(C)CNC(=O)C=CC=CCCCCCOc1cccc(Cl)n1 [Example 14]
Myzus persicae; at 1000 ppm
  active (mortality): active

## (2E/Z,4E) N-Isobutyl 3-methyl-12-(4-chloro-2'-pyrimidyloxy) -dodeca-2,4-dienamide and (2E/Z,4E) N-Isobutyl 3-methyl-12-(2-chloro-4'-pyrimidyloxy) -dodeca-2,4-dienamide [Example 33]
Myzus persicae; at 1000 ppm
  active (mortality): active

## (2E,4E) N-1-Methylpropyl 12-(4'-chloro-2-pyrimidyloxy) dodeca-2,4-dienamide and (2E,4E) N-1-Methylpropyl 12-(2-chloro-4'-pyrimidyloxy) -dodeca-2,4-dienamide [Example 34]
Tetranychus urticae; at 1000 ppm
  active (mortality): active

## CCC(C)NC(=O)/C=C/C=C/CCCCCCCOc1ccncc1 (stereo not shown) [Example 30, (2E,4E) -N-(1-methylpropyl) 12-(4'-pyridyloxy)dodeca-2,4-dienamide]
Myzus persicae; at 1000 ppm
  active (mortality): active

## CC(C)CNC(=O)C=CC=CCCCCCCCOc1cccnc1Br [Example 28]
Tetranychus urticae; at 1000 ppm
  active (mortality): active

## C=C(C)CNC(=O)C=CC=CCCCCCCCOc1cc(C(F)(F)F)cc(C(F)(F)F)n1 [Example 21]
Tetranychus urticae; at 1000 ppm
  active (mortality): active
Sitophilus granarius
  active (mortality): active
Musca domestica; at 200 ppm
  active (mortality): active

## CC(C)CNC(=O)C=CC=CCCCCCCCOc1cc(C(F)(F)F)cc(Cl)n1 [Example 10]
Sitophilus granarius
  active (mortality): active
Musca domestica; at 1000 ppm
  active (mortality): active

## CC(C=CCCCCCCCOc1ccc(Cl)cn1)=CC(=O)NCC(C)C [Example 18]
Plutella xylostella [3]; at 1000 ppm
  active (mortality): active
Tetranychus urticae; at 1000 ppm
  active (mortality): active
Myzus persicae; at 1000 ppm
  active (mortality): active
Musca domestica; at 1000 ppm
  active (mortality): active

## CC(C)CNC(=O)C=CC=CCCCCCCCOc1cccc(Cl)n1 [Example 1, N-Isobutyl 12-(6'-chloro-2'-pyridyloxy)dodeca-2,4-dienamide]
Plutella xylostella [3]; at 1000 ppm
  active (mortality): active
Tetranychus urticae; at 1000 ppm
  active (mortality): active
C. quinquefasciatus
  LD50: > 1000 ppm
T. castaneum
  LD50: > 1000 ppm
A. aegypti (larvae)
  LD50: > 1000 ppm
S. granarius
  LD50: > 1000 ppm
Myzus persicae; at 200 ppm
  active (mortality): active
M. domestica
  LD50: about 200 ppm
Musca domestica; at 200 ppm
  active (mortality): active
